# According to patent US6031135A, “Trimethylsphingosine derivatives” (Oncomembrane, Inc., priority 1996, dated 2000):
# How the values were obtained:
# water solubility = type: physicochemical; details: particularly at physiologic pH
# HL60 cells = test: HL60 adhesion on activated platelet-coated solid phase; type: cell-based, human; details: thrombin-stimulated and PMA-stimulated platelets
# Description: HL60 (a human promylelocytic cell line available from the ATCC under accession number CCL 240) adhesion on resting or activated platelet-coatedsolid phase was evaluated as follows. Each well of a 48-well plate (Costar Scientific, Cambridge, Mass.) was filled with a poly-L-lysine solution (100 μg/ml in PBS) and incubated for 1 hour. Each well then was washed with PBS and then 150 μl of PBS containing 6×10^7 resting or activated platelets were added to each well and the plate was incubated for 1 hour. Plates were centrifuged (300×g for 7 minutes) and incubated a further 30 minutes at room temperature. Bound platelets were fixed by addition of 0.1% (w/v) glutaraldehyde in PBS for 2 minutes at 4° C. Each well was washed with 10 mM glycine in PBS and plates were incubated with 5% (w/v) BSA containing 0.1% (w/v) sodium azide, 10 mM glycine in PBS for 1 hour at room temperature.
# [1] = tested on: 47 kDa and 65 kDa proteins; test: PMA-stimulated protein phosphorylation in 32P-labeled neutrophils; type: cell-based, human; details: neutrophils pre-incubated with 15-45 μM, then 1.5 μM PMA
# Description: Excess unbound components were removed by centrifugation and the pellets were resuspended in the same buffer, repeating twice. The cells then were divided into 7 treatment groups, each containing ≈1×10^7 cells in a total volume of 0.4 ml. TMS, SPN or DMS was added to a suspension and incubated at 37° C. for 10 min, followed by addition of PMA to a final concentration of 1.5 μM. Two minutes later, the reaction was terminated by adding 0.1 ml of Laemmli sample buffer and 20 mM EDTA, followed by heating at 100° C. for 5 min. Aliquots were separated through 10% sodium dodecyl sulfate gels using known procedures. ^32 P incorporation was visualized by autoradiography.
# PK-C [2] = details: literature (Hannun & Bell; Merrill & Stevens); cited from earlier work
# B16BL6 melanoma cells = test: metastasis of B16BL6 melanoma cells (lung metastatic deposits in mice); type: in vivo, mouse; parameters: key to Inhibition of metastasis: +: effective; -: not effective
# Description: BL6 cells were injected into mice and metastatic deposits in the lung were assessed after various treatments including route and timing, of administration.
# PK-C [3] = test: PK-C activity bioassay (histone III-S or myelin basic protein substrate); type: biochemical, human (A431 cells) or mouse brain; parameters: key: +: effective; -: not effective
# Description: In another in vitro assay, the influence of various compounds on PK-C activity was monitored. Certain tumor cells present high levels of PK-C activity. The human epidermoid carcinoma cell line A-431 (ATCC No. CRL 1555) was used in a bioassay for PK-C activity as described in Igarashi et al. (supra). Briefly, phosphatidylserine (5 μg/tube) and 1,2-diolein (0.05 μg/tube), with or without an appropriate quantity of a sphingosine derivative sample, were added in an organic solvent, ethanol or ethanol/chloroform, to a 1.5 ml tube (Sarstedt) and the mixture was evaporated under a N2 stream. The lipid mixture was sonicated in about 30 μl of 20 mM Tris-HCl (pH 7.5) for 30 minutes.
# The resulting liposomes were supplemented with a buffer mixture comprising 25 mM Tris-HCl (pH 7.5), 10 mM MgCl2, […], 50 μM EGTA, 500 μM CaCl2, […] histone III-S or myelin basic protein and 20 μM γ[^32 P]-ATP (2×10^6 cpm) to a final volume of about 90 μl. […]
# The precipitate was collected by centrifugation, washed twice with 1 ml of 25% TCA, then dissolved in 1 ml of 1 M NaOH containing 0.1% deoxycholate with slight heating (80° C. for ten minutes) and counted in a scintillation counter. […]
# platelets = test: platelet aggregation (aggregometer, thrombin or ADP); type: cell-based; parameters: key to Inhiition of PA: +: effective; -: not effective
# Description: Platelets were isolated from platelet-rich plasma (purchased from the Oregon Red Cross, Portland, Oreg.). Contaminating erythrocytes were removed by centrifugation (80×g for 10 minutes). Platelets were obtained by centrifugation (300×g for 10 minutes), washed once in Tyrode buffer (pH 6.5) containing 22 mM trisodium citrate and 0.35% (w/v) BSA and resuspended in the same buffer to obtain a concentration of 1-2×10^9 platelets/ml. All procedures were performed at room temperature.
# A suspension of platelets (about 3.5×10^8 /ml) in Tyrode buffer was preincubated with inhibitor compounds (H-7 [1-(5-isoquinolinylsulfonyl)-2-methylpiperazine, a synthetic protein kinase-C inhibitor purchased from Seikagaku America Inc., St. Petersburg, Fla.], Calphostin-C [a synthetic protein kinase-C inhibitor obtained from Dr. Saitoh, Kyowa Hakko Co., Ltd., Machida, Tokyo, Japan], sphingosine [purchased from Sigma, St. Louis, Mo.] and dimethylsphingosine and trimethylsphingosine [synthesized according to Igarashi et al., Biochem., 28, 6796, 1989]) followed by addition of thrombin or ADP (both purchased from Sigma). Platelet aggregation was evaluated by transmittance change using an aggregometer (Chrono-log Corp., Havertown, Pa.) equipped with a computer analyzer.
# [4] = Preincubation with free derivative
smiles,measurement,setting,value
"CCCCCCCCCCCCC/C=C/C(O)C(CO)NC (stereo not shown) [MMS, N-monomethylsphingosine]",water solubility,water solubility,less water soluble
"CCCCCCCCCCCCC/C=C/[C@@H](O)[C@@H](N)CO [sphingosine, Sphingosine]",water solubility,water solubility,less water soluble
same,HL60 cell binding,HL60 cells,minimally inhibited
same,phosphorylation of 47 kDa and 65 kDa proteins,[1],diminished significantly
same,PK-C activity,PK-C [2],inhibited
"CCCCCCCCCCCCC/C=C/C(O)C(CO)N(C)C (stereo not shown) [DMS, N,N-dimethylsphingosine]",water solubility,water solubility,less water soluble
same,HL60 cell binding,HL60 cells,inhibited strongly
same,phosphorylation of 47 kDa and 65 kDa proteins,[1],diminished significantly
CCCCCCCCCCCCCCCC(O)C(CO)[N+](C)(C)C (stereo not shown) [DHTMS],Inhibition of metastasis,B16BL6 melanoma cells; Experimental and spontaneous metastasis with liposomal formulation,+
C[N+](C)(C)[C@@H](CO)[C@H](O)/C=C/CCCCCCCCCCCCC(=O)O [Carboxy TMS],PKC inhibition,PK-C [3],-
same,Inhibition of metastasis,B16BL6 melanoma cells; [4],-
same,Inhiition of PA,platelets,-
COC(=O)CCCCCCCCCCCC/C=C/[C@@H](O)[C@H](CO)[N+](C)(C)C [Methylcarboxy TMS],PKC inhibition,PK-C [3],-
same,Inhibition of metastasis,B16BL6 melanoma cells; [4],-
same,Inhiition of PA,platelets,-
CCCCCCCCCCCCCC#CC(O)C(CO)[N+](C)(C)C (stereo not shown) [4-alkyn-TMS],Inhibition of metastasis,"B16BL6 melanoma cells; B16BL6 melanoma cells, no readable footnote on the cell",+
